The subject of data set [1] is human cell lines (head and neck, breast, and gastric). The note with it: cited from earlier work.
Data set [2] has as its system activation of EGFR, erbB2, Erk1/2, and Akt. The settings on record: treatment of tumor xenografts; cited from earlier work.
In the next data set the target is T1, Her2-Her3 heterodimers (Homo sapiens, UniProt P21860).
T1 construct: endogenous in cells; host or cells: MCF-7
Kind of data set: Releasable molecular tag assay of cell lysates for Her2-Her3 heterodimers. The settings on record: MCF-7 cells, increasing ligand concentrations, 10 minutes at 37° C., FIG. 4C. The data set is classed as cell-based. Here is the method:
Measurements are made using three binding compounds and a cleaving probe as described below.
7.3.1 Sample Preparation: • 1. Serum-starve breast cancer cell line culture overnight before use. • 2. […] Aspirate culture media, transfer onto ice, and add lysis buffer to lyse cells in situ. • 4. Scrape and transfer lysate to microfuge tube. Incubate on ice for 30 min. Microfuge at 14,000 rpm, 4° C., for 10 min. (Centrifugation is optional.) • 5. Collect supernatants as lysates and aliquot for storage at −80° C. until use.
Assay design: As illustrated diagrammatically in FIG. 4A, Her2-Her3 heterodimers (900) are quantified ratiometrically based on the binding of cleaving probe (902) and binding compounds (904), (906), and (908). A photosensitizer indicated by “PS” is attached to cleaving probe (902) via an avidin-biotin linkage, and binding compounds (904), (906), and (908) are labeled with molecular tags Pro14, Pro10, and Pro11, respectively. Binding compound (904) is specific for a phosphorylation site on Her3.
The total assay volume is 40 ul. The lysate volume is adjusted to 30 ul with lysis buffer. […]
7.3.3 Data Analysis: • 1. Normalize relative fluorescence units (RFU) signal of each molecular tag against CE reference standard A315 (a fluorescein-derivatized deoxyadenosine monophosphate that has known peak position relative to molecular tags from the assay upon electrophoretic separation). • 2. […]

A further data set concerns Her1 phosphorylation. Description: Releasable molecular tag assay of cell lysates for Her1 phosphorylation. The note with it: BT-20 cells, increasing ligand concentration, FIG. 6B. The data set is classed as cell-based, human. Here is the method:
Sample preparation was carried out essentially as described in Example 2.
Assay design: A monoclonal antibody specific to the receptor is separately conjugated with either a molecular tag or biotin (that is then linked to a photosensitizer via an avidin bridge), so that the cleaving probe and a binding compound compete to bind to the same epitope in this example. Another binding compound is used that consists of a second antibody recognizing an overlapping epitope on the receptor, so that a ratiometric signal can be generated as a measure of homodimerization. The signal derived from the second antibody also provides a measure of the total amount of receptor in a sample. The total amount of receptor is determined in a separate assay well. Receptor phosphorylation can be quantified together with either homodimerization or total receptor amount.
The assay volume is 40 ul and the general procedure is similar to that of Example 2. Two assay wells, A and B, are set up for each sample to quantify homodimerization and total amount of receptor separately.
• Pro10_anti-Her-1: 0.05-0.1 ug/ml • Pro2_anti-phospho-Tyr: 0.1 ug/ml • Biotin_anti-Her-1: 1-2 ug/ml
7.5.2 Data Analysis: • 1. Normalize RFU signal of each molecular tag against CE reference standard A315. • 2. Subtract RFU of “no lysate” background control from corresponding molecular tag signals. • 3. […]

The subject of data set [3] is Her receptor phosphorylation. Description: Fixed cell pellet sections, receptor phosphorylation. It is filed as cell-based, human. The settings on record: 100 nM vs non-stimulated. On the procedure:
In this example, model fixed tissues made from pelleted cell lines were assayed for the presence of Her receptor dimers. The assay design for heterodimers was essentially the same as that described in FIG. 4A, with exceptions as noted below. That is, four components are employed: (i) a cleaving probe comprising a biotinylated monoclonal antibody conjugated to a cleavage-inducing moiety (in this example, a photosensitizer-derivatized streptavidin, as illustrated in FIG. 3E) and specific for one of the receptors of the dimer, (ii) a monoclonal antibody derivatized with a first molecular tag and specific for the same receptor as the cleaving probe, (iii) a monoclonal antibody derivatized with a second molecular tag and specific for the receptor opposite to that the cleaving probe is specific for, and (iv) a monoclonal antibody derivatized with a third molecular tag and specific for an intracellular phosphorylated tyrosine. The assay design for homodimers was essentially the same as that described in FIG. 1D, with exceptions as noted below.
In each case, model fixed tissues were prepared as follows: cells grown on tissue culture plates were stimulated with either EGF or HRG as described in the prior examples, after which they were washed and removed by scrapping. […]

Take `CS(=O)(=O)CCNCc1ccc(-c2ccc3ncnc(Nc4ccc(OCc5cccc(F)c5)c(Cl)c4)c3c2)o1` [GW572016]: the “IC90, growth inhibition of human cell lines” value in data set [1] (head and neck, breast, and gastric cell lines in vitro) was under 1.313 µg/mL. In addition, the “outgrowth following cessation of treatment” value in data set [1] (up to 18 days following cessation of treatment) is recorded as “no outgrowth observed”. Further, the “activation of EGFR, erbB2, Erk1/2, and Akt in tumor xenografts” value in data set [2] is “inhibition”.

Take “EGF: epidermal growth factor, peptide that binds to the cell-surface EGFR; used to stimulate cell lines”: the “quantity of Her2-Her3 heterodimers” value with Her2-Her3 heterodimers is “essentially no change”. Also, the “quantity of Her1 phosphorylation” value in the data set with Her1 phosphorylation is “increases”. In data set [3] (fixed pellets of 22Rv1 cells, FIG. 15D), the Her receptor phosphorylation result is given as “up-regulation”. For the same compound, the intracellular phosphorylation result in data set [3] (fixed pellets of MDA-MB-468 cells, FIG. 15A) is “increases”.

Values taken from US20080254497A1, “Response Predictors for Erbb Pathway-Specific Drugs” (MONOGRAM BIOSCIENCES, INC., priority 2004, published 2008).
